Results as given in patent US20120316161A1, “NOVEL ANTIVIRAL COMPOUNDS” (KATHOLIEKE UNIVERSITEIT LEUVEN, priority 2009, published 2012).
Where two headings read alike, the source gives them in different places. Each block holds one compound with its values, some of them ahead of it.

What was measured:
[1] = biological target: T1, LEDGF-integrase interaction (His6-tagged HIV-1 integrase, flag-LEDGF/p75) (Human immunodeficiency virus type 1 group M subtype B, UniProt P04585); assay: AlphaScreen assay of LEDGF-integrase interaction inhibition; type: binding; details: compound at 100 μM
T1 construct: His6-tagged HIV-1 integrase; made in house
Experimental: The AlphaScreen assay was performed according to the manufacturer's protocol (Perkin Elmer, Benelux). Reactions were performed in 25 μl final volume in 384-well Optiwell™ microtiter plates (Perkin Elmer). The reaction buffer contained 25 mM Tris-HCl (pH 7.4), 150 mM NaCl, 1 mM MgCl2, 0.01% (v/v) Tween-20 and 0.1% (w/v) bovine serum albumin. His6-tagged integrase (300 nM final concentration) was incubated with the compounds for 30 min at 4° C. The compounds were added at varying concentrations spanning a wide range from 0.1 up to 100 μM. Afterwards 100 nM flag-LEDGF/p75 was added and incubation was prolonged for an additional hour at 4° C. Subsequently 5 μl of Ni-chelate—coated acceptor beads and 5 μl anti-flag donor beads were added to a final concentration of 20 μg/ml of both beads. Proteins and beads were incubated for 1 h at 30° C. in order to allow association to occur. Exposure of the reaction to direct light was omitted as much as possible and the emission of light from the acceptor beads was measured in the EnVision plate reader (Perkin Elmer, Benelux) and analyzed using the EnVision manager software. IN/DNA binding was analyzed in a similar setting using His6-tagged integrase (1 μM final concentration) and an oligodeoxynucleotide mimicking the IN ELISA oligonucleotide substrate (30 nM final concentration). Counterscreens with JPO2 or PogZ, respectively, were essentially performed as described previously. Expression and purification of recombinant proteins: His6-tagged HIV-1 integrase, 3xflag-tagged LEDGF/p75, MBP-JPO2 and MBP-PogZ were purified for AlphaScreen applications as described previously.

HIV = assay: microbe, parasite or virus in culture; type: cell-based; details: Human immunodeficiency virus 1, MT4
Experimental: (§1) A rapid and automated assay procedure was used for the in vitro evaluation of anti-HIV agents. An HTLV-1 transformed T4-cell line MT-4, which was previously shown to be highly susceptible to and permissive for HIV infection, served as the target cell line. Inhibition of the HIV-induced cytopathogenic effect was used as the end point. The viability of both HIV-and mock-infected cells was assessed spectrophotometrically via in situ reduction of 3-(4,5-dimethylthiazol-2-yl)-2,5-diphenyltetrazolium bromide (MTT). The 50% cytotoxic concentration (CC50 in μg/ml) was defined as the concentration of compound that reduced the absorbance of the mock-infected control sample by 50%. The percent protection achieved by the compound in HIV-infected cells was calculated by the following formula: […]
whereby (ODT)HIV is the optical density measured with a given concentration of the test compound in HIV-infected cells; (ODC)HIV is the optical density measured for the control untreated HIV-infected cells; (ODC)MOCK is the optical density measured for the control untreated mock-infected cells; all optical density values were determined at 540 nm. The dose achieving 50% protection according to the above formula was defined as the 50% inhibitory concentration (EC50 in μg/ml or μM). The ratio of CC50 to EC50 was defined as the selectivity index (SI). […] Examples of inhibition of cell proliferation by particular compounds of the invention can be found by looking at the respective CC50 values in the MT-4 cell line. Cells: MT-4 cells (Miyoshi et al., 1982) were grown and maintained in RPMI 1640medium supplemented with 10% heat-inactivated fetal calf serum, 2 mM 1-glutamine, 0.1% sodium bicarbonate, and 20æg of gentamicin per ml.
Viruses: The HIV-1 (NL4.3) strain (Adachi et al., 1986) is a molecular clone obtained from the National Institutes of Health (Bethesda, Md.). The HIV-2 (ROD) (Barr, -Sinoussi et al., 1983) stock was obtained from culture supernatant of HIV-2 infected cell lines.

[2] = Cytotoxicity in mock-infected MT-4 cells (MTT); type: cell-based; details: human, mock-infected MT-4 cells
Experimental: as §1, with “The 50% cytotoxic concentration (CC50 in μg/ml) was defined as the concentration of compound that reduced the absorbance of the mock-infected control sample by 50%.” left out
whereby (ODT)HIV is the optical density measured with a given concentration of the test compound in HIV-infected cells; (ODC)HIV is the optical density measured for the control untreated HIV-infected cells; (ODC)MOCK is the optical density measured for the control untreated mock-infected cells; all optical density values were determined at 540 nm. […] The ratio of CC50 to EC50 was defined as the selectivity index (SI).

[3] = 50% protection of HIV-infected MT-4 cells, read-out: EC50

SMILES: CCCC(C(=O)O)c1c(C)nc2ccnn2c1-c1ccc(C)cc1 (centres unmarked) [CPD-57, 2-(5-methyl-7-p-tolylpyrazolo[1,5-a]pyrimidin-6-yl)pentanoic acid]
- Alpha screen % (100 μM) [1]: 84%
- EC50 (HIV; [3]): 192 µM
- CC50 [2]: > 250 µM

SMILES: CCCC(C(=O)O)c1c(C)nc2cc(C(C)(C)C)nn2c1-c1ccccc1 (centres unmarked) [CPD-58, 2-(2-tert-butyl-5-methyl-7-phenylpyrazolo[1,5-a]pyrimidin-6-yl)pentanoic acid]
- Alpha screen % (100 μM) [1]: 77%
- EC50 (HIV; [3]): 27.3 µM
- CC50 [2]: 121 µM

SMILES: CCCC(C(=O)O)c1c(C)nc2cc(C(C)(C)C)nn2c1-c1ccc(C)cc1 (centres unmarked) [CPD-59, 2-(2-tert-butyl-5-methyl-7-p-tolylpyrazolo[1,5-a]pyrimidin-6-yl)pentanoic acid]
- Alpha screen % (100 μM) [1]: 92%
- EC50 (HIV; [3]): 14.3 µM
- CC50 [2]: > 250 µM

SMILES: CCCC(C(=O)O)c1c(C)nc2c(Br)c(C(C)(C)C)nn2c1-c1ccc(C)cc1 (centres unmarked) [CPD-60, 2-(3-bromo-2-tert-butyl-5-methyl-7-p-tolylpyrazolo[1,5-a]pyrimidin-6-yl)pentanoic acid]
- Alpha screen % (100 μM) [1]: 92%
- EC50 (HIV; [3]): 2.39 µM
- CC50 [2]: 56.3 µM

SMILES: CCCC(C(=O)O)c1c(C)nc2cc(-c3ccccc3)nn2c1-c1ccc(C)cc1 (centres unmarked) [CPD-61, 2-(5-methyl-2-phenyl-7-p-tolylpyrazolo[1,5-a]pyrimidin-6-yl)pentanoic acid]
- Alpha screen % (100 μM) [1]: 94%
- EC50 (HIV; [3]): 30.2 µM
- CC50 [2]: 104 µM

SMILES: CCCC(C(=O)O)c1c(C)nc2cc(C(C)(C)C)nn2c1-c1ccc2cc[nH]c2c1 (centres unmarked) [CPD-65, 2-(2-tert-butyl-7-(1H-indol-6-yl)-5-methylpyrazolo[1,5-a]pyrimidin-6-yl)pentanoic acid]
- Alpha screen % (100 μM) [1]: 30%
- EC50 (HIV): 5.69 µM
- CC50 [2]: 46.5 µM

SMILES: CCCC(C(=O)O)c1c(C)nc2cc(C(C)(C)C)nn2c1-c1ccc2occc2c1 (centres unmarked) [CPD-66, 2-(7-(benzofuran-5-yl)-2-tert-butyl-5-methylpyrazolo[1,5-a]pyrimidin-6-yl)pentanoic acid]
- Alpha screen % (100 μM) [1]: 92%
- EC50 (HIV; [3]): 10.5 µM
- CC50 [2]: 99 µM

SMILES: CCCC(C(=O)O)c1c(C)nc2cc(C(C)(C)C)nn2c1-c1ccc2sccc2c1 (centres unmarked) [CPD-67, 2-(7-(benzo[b]thiophen-5-yl)-2-tert-butyl-5-methylpyrazolo[1,5-a]pyrimidin-6-yl)pentanoic acid]
- Alpha screen % (100 μM) [1]: 93%
- EC50 (HIV; [3]): 2.94 µM
- CC50 [2]: 70 µM

SMILES: CCCC(C(=O)O)c1c(C)nc2cc(C(C)(C)C)nn2c1-c1ccc2c(c1)CCO2 (centres unmarked) [CPD-68, 2-(2-tert-butyl-7-(2,3-dihydrobenzofuran-5-yl)-5-methylpyrazolo[1,5-a]pyrimidin-6-yl)pentanoic acid]
- Alpha screen % (100 μM) [1]: 93%
- EC50 (HIV; [3]): 6.42 µM
- CC50 [2]: 101 µM

SMILES: CCCC(C(=O)O)c1c(C)nc2cc(C(C)(C)C)nn2c1-c1ccc(Cl)cc1 (centres unmarked) [CPD-69, 2-(2-tert-butyl-7-(4-chlorophenyl)-5-methylpyrazolo[1,5-a]pyrimidin-6-yl)pentanoic acid]
- Alpha screen % (100 μM) [1]: 93%
- EC50 (HIV): 1.61 µM
- CC50 [2]: 40.3 µM

SMILES: CCCC(C(=O)O)c1c(C)nc2cc(C(C)(C)C)nn2c1-c1ccc(C)c(C)c1 (centres unmarked) [CPD-70, 2-(2-tert-butyl-7-(3,4-dimethylphenyl)-5-methylpyrazolo[1,5-a]pyrimidin-6-yl)pentanoic acid]
- Alpha screen % (100 μM) [1]: 93%
- EC50 (HIV; [3]): 72.1 µM
- CC50 [2]: > 125 µM

SMILES: CCCC(C(=O)O)c1c(C)nc2cc(C(C)(C)C)nn2c1-c1ccc(CC)cc1 (centres unmarked) [CPD-71, 2-(2-tert-butyl-7-(4-ethylphenyl)-5-methylpyrazolo[1,5-a]pyrimidin-6-yl)pentanoic acid]
- Alpha screen % (100 μM) [1]: 74%
- EC50 (HIV; [3]): 2.8 µM
- CC50 [2]: 73 µM

SMILES: CCCC(C(=O)O)c1c(C)nc2cc(C(C)(C)C)nn2c1-c1ccc2c(c1)OCCCO2 (centres unmarked) [CPD-72, 2-(2-tert-butyl-7-(3,4-dihydro-2H-benzo[b][1,4]dioxepin-7-yl)-5-methylpyrazolo[1,5-a]pyrimidin-6-yl)pentanoic acid]
- Alpha screen % (100 μM) [1]: 93%
- EC50 (HIV; [3]): 22.6 µM
- CC50 [2]: > 125 µM

SMILES: CCCc1cc2nc(C)c(C(CCC)C(=O)O)c(-c3ccc(C)cc3)n2n1 (centres unmarked) [CPD-77, 2-(5-methyl-2-propyl-7-p-tolylpyrazolo[1,5-a]pyrimidin-6-yl)pentanoic acid]
- Alpha screen % (100 μM) [1]: 83%
- EC50 (HIV; [3]): 28.1 µM
- CC50 [2]: 203 µM

SMILES: CCCC(C(=O)O)c1c(C)nc2cc(-c3ccco3)nn2c1-c1ccc(C)cc1 (centres unmarked) [CPD-78, 2-(2-(furan-2-yl)-5-methyl-7-p-tolylpyrazolo[1,5-a]pyrimidin-6-yl)pentanoic acid]
- Alpha screen % (100 μM) [1]: 83%
- EC50 (HIV; [3]): 21.2 µM
- CC50 [2]: 127 µM

SMILES: CCCC(C(=O)O)c1c(C)nc2cc(C(C)(C)C)nn2c1-c1ccc(Cl)cc1F (centres unmarked) [CPD-79, 2-(2-tert-butyl-7-(4-chloro-2-fluorophenyl)-5-methylpyrazolo[1,5-a]pyrimidin-6-yl)pentanoic acid]
- Alpha screen % (100 μM) [1]: 75%
- EC50 (HIV; [3]): 1.89 µM
- CC50 [2]: 76 µM

SMILES: CCCC(C(=O)O)c1c(C)nc2cc(C(C)(C)C)nn2c1-c1ccc(C)cc1F (centres unmarked) [CPD-80, 2-(2-tert-butyl-7-(2-fluoro-4-methylphenyl)-5-methylpyrazolo[1,5-a]pyrimidin-6-yl)pentanoic acid]
- Alpha screen % (100 μM) [1]: 75%
- EC50 (HIV; [3]): 4.08 µM
- CC50 [2]: 192 µM

SMILES: Cc1ccc(-c2c(C(CCCC(F)(F)F)C(=O)O)c(C)nc3cc(C(C)(C)C)nn23)cc1 (centres unmarked) [CPD-81, 2-(2-tert-butyl-7-p-tolyl-5-methylpyrazolo[1,5-a]pyrimidin-6-yl)-6,6,6-trifluorohexanoic acid]
- Alpha screen % (100 μM) [1]: 65%
- EC50 (HIV; [3]): 16.4 µM
- CC50 [2]: 56 µM

SMILES: CCCC(C(=O)O)c1c(C)nc2cc(C(C)(C)C)nn2c1-c1ccc2c(c1)CCCO2 (centres unmarked) [CPD-85]
- Alpha screen % (100 μM) [1]: 76%
- EC50 (HIV; [3]): 2.54 µM
- CC50 [2]: 125 µM

SMILES: CCC(C)C(C(=O)O)c1c(C)nc2cc(C(C)(C)C)nn2c1-c1ccc(C)cc1 (centres unmarked) [CPD-86, 2-(2-tert-butyl-7-p-tolyl-5-methylpyrazolo[1,5-a]pyrimidin-6-yl)-3-methylpentanoic acid]
- CC50 [2]: 77 µM

SMILES: CCCC(C(=O)O)c1c(C)nc2c(Cl)c(C(C)(C)C)nn2c1-c1ccc(C)cc1 (centres unmarked) [CPD-87, 2-(2-tert-butyl-3-chloro-7-p-tolyl-5-methylpyrazolo[1,5-a]pyrimidin-6-yl)pentanoic acid]
- Alpha screen % (100 μM) [1]: 67%
- EC50 (HIV; [3]): 2.33 µM
- CC50 [2]: 38.3 µM

- EC50 (HIV; [3]): 23.2 µM
SMILES: CCCC(C(=O)O)c1c(C)nc2c(nc(C)n2C)c1-c1ccc(C)cc1 (centres unmarked) [CPD-105, 2-(2,3,5-Trimethyl-7-p-tolyl-3H-imidazo[4,5-b]pyridin-6-yl)pentanoic acid]
- CC50 [2]: 235 µM

- EC50 (HIV; [3]): 124 µM
SMILES: CCCC(C(=O)O)c1c(C)nc2nc(C(C)C)nn2c1-c1ccc(C)cc1 (centres unmarked) [CPD-121, 2-(2-isopropyl-5-methyl-7-p-tolyl-[1,2,4]-triazolo[1,5-a]pyrimidin-6-yl)pentanoic acid]
- CC50 [2]: > 250 µM
